Laboratory results: ChEMBL document CHEMBL1201862, “PubChem BioAssay data set” (2004)
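Values below derive from 48-hour exposures of cells grown in 96-well plates, with endpoints linearly interpolated between the two concentrations bracketing the appropriate inhibition level. The concentration for 50% growth inhibition is given as GI50.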 Calls of active or inactive are those of the source. No stated cut-off is given here; in the data, active = GI50 up to about 1.1 µM and inactive = higher.

Tests used:
Assay in all cases: DTP human tumour cell line panel, 48 h
UACC-62 = test system: UACC-62
EKVX = test system: EKVX
CCRF-CEM = test system: CCRF-CEM
COLO 205 = test system: COLO 205
SF-295 = test system: SF-295
HCT-15 = test system: HCT-15
K562 = test system: K562
SR = test system: SR
HOP-92 = test system: HOP-92
Malme-3M = test system: Malme-3M
SK-MEL-2 = test system: SK-MEL-2
HT-29 = test system: HT-29
RPMI-8226 = test system: RPMI-8226
NCI-H23 = test system: NCI-H23
SF-539 = test system: SF-539
M14 = test system: M14
SNB-75 = test system: SNB-75

Structure (SMILES) | GI50 (UACC-62) | GI50 (EKVX) | GI50 (CCRF-CEM) | GI50 (COLO 205) | GI50 (SF-295) | GI50 (HCT-15) | GI50 (K562) | GI50 (SR) | GI50 (HOP-92) | GI50 (Malme-3M) | GI50 (SK-MEL-2) | GI50 (HT-29) | GI50 (RPMI-8226) | GI50 (NCI-H23) | GI50 (SF-539) | GI50 (M14) | GI50 (SNB-75)
C=C(C)C1CC=C(C)CC1 (stereo unspecified) | 838 µM (inactive) | 1030 µM (inactive) | 826 µM (inactive) | 1010 µM (inactive) | 925 µM (inactive) | 891 µM | 813 µM (inactive) | 889 µM (inactive) | 841 µM (inactive) | 885 µM (inactive) | 798 µM (inactive) | 923 µM (inactive) | > 100 µM (inactive) | 933 µM (inactive) | 899 µM (inactive) | 893 µM (inactive) | 865 µM (inactive)
O=C(CC(=O)c1ccccc1)C(=O)NC12CC3CC(CC(C3)C1)C2 | > 100 µM (inactive) | > 100 µM (inactive) | > 49.2 µM (inactive) | > 45 µM (inactive) | > 100 µM (inactive) | > 37.8 µM | > 56.9 µM (inactive) | > 100 µM (inactive) | > 100 µM (inactive) | > 100 µM (inactive) | > 100 µM (inactive) | > 100 µM (inactive) | > 45.3 µM (inactive) | > 100 µM (inactive) | > 100 µM (inactive) | > 100 µM (inactive) | > 69.7 µM (inactive)
CC(=O)/C(=C\c1ccccc1)C(=O)Nc1ccccc1 | > 100 µM (inactive) | > 100 µM (inactive) | > 100 µM (inactive) |  | 44.1 µM (inactive) |  | > 100 µM (inactive) | > 100 µM (inactive) | > 100 µM (inactive) | > 100 µM (inactive) | > 100 µM (inactive) | > 100 µM (inactive) | > 100 µM (inactive) | > 100 µM (inactive) | > 100 µM (inactive) | > 100 µM (inactive) | 
Cc1cccc(N2C(=O)C(Cl)=C(Cl)C2=O)c1 | > 64.7 µM (inactive) | > 74 µM (inactive) | 18.5 µM (inactive) | > 69 µM (inactive) | > 100 µM (inactive) | > 41.7 µM | 35.3 µM (inactive) | 18.2 µM (inactive) | > 53.8 µM (inactive) | > 42.1 µM (inactive) | > 100 µM (inactive) | > 62.2 µM (inactive) | > 47.1 µM (inactive) | > 69.2 µM (inactive) | > 100 µM (inactive) | > 55.8 µM (inactive) | > 100 µM (inactive)
CCN(CC)CCC1(C2CCCCC2)CCC(=O)NC1=O (stereo unspecified) | > 100 µM (inactive) | > 100 µM (inactive) | > 100 µM (inactive) | > 100 µM (inactive) | > 100 µM (inactive) | > 100 µM | > 100 µM (inactive) |  |  | > 100 µM (inactive) | > 100 µM (inactive) | > 100 µM (inactive) | > 100 µM (inactive) | > 100 µM (inactive) | > 100 µM (inactive) | > 100 µM (inactive) | > 100 µM (inactive)
N=C(N)NS(=O)(=O)c1ccc(NC(=O)c2cccc3c(N)c4ccccc4nc23)cc1 | > 100 µM (inactive) | > 100 µM (inactive) | 92.3 µM (inactive) | > 100 µM (inactive) | > 100 µM (inactive) | > 100 µM | > 100 µM (inactive) |  |  | > 100 µM (inactive) | > 100 µM (inactive) |  | > 100 µM (inactive) | > 100 µM (inactive) | > 100 µM (inactive) | > 100 µM (inactive) | 96.2 µM (inactive)
CCOc1cc2c(C(=O)CC)c(O)ccc2o1 | > 37.6 µM (inactive) | > 100 µM (inactive) | 24.9 µM (inactive) | > 67.9 µM (inactive) | > 100 µM (inactive) | > 100 µM | 28.8 µM (inactive) | 33.7 µM (inactive) | > 100 µM (inactive) | > 100 µM (inactive) | > 100 µM (inactive) | 39 µM (inactive) | > 58.1 µM (inactive) | > 100 µM (inactive) | > 100 µM (inactive) | > 55 µM (inactive) | > 91 µM (inactive)
CCCCCCCCCCCCCS(=O)(=O)NCC(N)=O | > 100 µM (inactive) | > 100 µM (inactive) | > 100 µM (inactive) | > 100 µM (inactive) | > 100 µM (inactive) | > 100 µM |  |  | > 100 µM (inactive) | > 100 µM (inactive) | > 100 µM (inactive) | > 100 µM (inactive) |  | > 100 µM (inactive) | > 100 µM (inactive) | > 100 µM (inactive) | 25.6 µM (inactive)
CCCC(C(=O)OC)C1N/C(=N/C#N)N(Cc2ccccc2)C1=O (stereo unspecified) | > 100 µM (inactive) | > 100 µM (inactive) | > 100 µM (inactive) | > 100 µM (inactive) | > 100 µM (inactive) | > 100 µM | 66.4 µM (inactive) | 91.2 µM (inactive) |  | > 100 µM (inactive) | > 100 µM (inactive) | > 100 µM (inactive) | > 100 µM (inactive) | > 100 µM (inactive) |  | > 100 µM (inactive) | 22.9 µM (inactive)
CCSc1nc2n(c(=S)n1)CCN2C | 12.1 µM (inactive) | 28.4 µM (inactive) |  |  | 21.9 µM (inactive) | 17.5 µM | 27.7 µM (inactive) | 7.67 µM (inactive) |  | 17.1 µM (inactive) | 19.1 µM (inactive) | 17.4 µM (inactive) | 22 µM (inactive) |  | 19.2 µM (inactive) | 15.8 µM (inactive) | 15.5 µM (inactive)
COc1ccccc1N1C(=O)C2c3[nH]c4ccccc4c3C3CCC(C(C)(C)C)CC3C2C1=O (stereo unspecified) | > 100 µM (inactive) | > 100 µM (inactive) | > 100 µM (inactive) | > 100 µM (inactive) | > 100 µM (inactive) | > 100 µM | > 100 µM (inactive) | 97.1 µM (inactive) | > 100 µM (inactive) | > 100 µM (inactive) |  | > 100 µM (inactive) | > 100 µM (inactive) | > 100 µM (inactive) | > 100 µM (inactive) | > 100 µM (inactive) | > 100 µM (inactive)
O=C(c1ccccc1)c1c(C(=O)c2ccccc2)c(-c2ccccc2)c2c(-c3ccccc3)sc(-c3ccccc3)c2c1-c1ccccc1 | > 100 µM (inactive) | > 100 µM (inactive) | > 100 µM (inactive) | > 100 µM (inactive) | > 100 µM (inactive) | > 100 µM | > 100 µM (inactive) |  | > 100 µM (inactive) | > 100 µM (inactive) |  | > 100 µM (inactive) | > 100 µM (inactive) | > 100 µM (inactive) | > 100 µM (inactive) | > 100 µM (inactive) | > 100 µM (inactive)
O=C1NC(=O)/C(=N\c2cccc3c(=O)[nH][nH]c(=O)c23)C(c2nc3ccccc3s2)C1=O (stereo unspecified) | > 100 µM (inactive) | > 100 µM (inactive) | 55.2 µM (inactive) | > 100 µM (inactive) | > 100 µM (inactive) | > 100 µM |  |  | > 100 µM (inactive) | > 100 µM (inactive) | > 100 µM (inactive) | > 100 µM (inactive) |  | > 100 µM (inactive) |  | > 100 µM (inactive) | > 100 µM (inactive)
O=C(CC(=O)N1N=C(n2ccc3ccccc32)CC1c1ccccc1)Nc1cccc(Cl)c1 (stereo unspecified) | > 100 µM (inactive) | > 100 µM (inactive) | > 100 µM (inactive) | > 100 µM (inactive) | > 100 µM (inactive) | > 100 µM | > 100 µM (inactive) |  | 16 µM (inactive) | > 100 µM (inactive) | > 100 µM (inactive) | > 100 µM (inactive) | > 100 µM (inactive) | > 100 µM (inactive) | > 100 µM (inactive) | > 100 µM (inactive) | 60.4 µM (inactive)
O=c1[nH]cc(COCCO)c(=O)[nH]1 | > 100 µM (inactive) | > 100 µM (inactive) | > 100 µM (inactive) | > 100 µM (inactive) | > 100 µM (inactive) | > 100 µM | > 100 µM (inactive) |  | > 100 µM (inactive) | > 100 µM (inactive) | > 100 µM (inactive) | > 100 µM (inactive) | > 100 µM (inactive) | > 100 µM (inactive) | > 100 µM (inactive) | > 100 µM (inactive) | > 100 µM (inactive)
CC1=C(C(=O)Nc2ccccc2C)C(c2ccc(Cl)cc2)C(C(=O)Nc2ccccc2C)=C(C)N1 | > 100 µM (inactive) | > 100 µM (inactive) | > 100 µM (inactive) | > 100 µM (inactive) | > 100 µM (inactive) | > 100 µM | > 100 µM (inactive) | > 100 µM (inactive) | > 100 µM (inactive) | > 100 µM (inactive) | > 100 µM (inactive) | > 100 µM (inactive) | > 100 µM (inactive) | > 100 µM (inactive) | > 100 µM (inactive) | > 100 µM (inactive) | 
BrC(Br)([P+](c1ccccc1)(c1ccccc1)c1ccccc1)[P+](c1ccccc1)(c1ccccc1)c1ccccc1 | 14.6 µM (inactive) | 19.9 µM (inactive) |  | 16.4 µM (inactive) | 29.4 µM (inactive) | 20.4 µM |  | 14 µM (inactive) | 11.1 µM (inactive) | 12.5 µM (inactive) | 16.5 µM (inactive) | 13.6 µM (inactive) | 6.87 µM (inactive) | 16.8 µM (inactive) | 13.6 µM (inactive) | 18.5 µM (inactive) | 19.4 µM (inactive)
Cc1c2ccncc2c(C)c2c1[nH]c1ccc(OCC(F)(F)F)cc12 |  | 1.61 µM (inactive) | 1.21 µM (inactive) | 1.55 µM (inactive) | 1.63 µM (inactive) | 1.05 µM | 1.08 µM (active) | 0.828 µM (active) | 2.23 µM (inactive) | 1.73 µM (inactive) | 1.58 µM (inactive) | 1.53 µM (inactive) | 2.27 µM (inactive) | 1.71 µM (inactive) | 1.75 µM (inactive) | 1.96 µM (inactive) | 2.17 µM (inactive)
